Laboratory results from PMC12355554, “Development of novel mitochondrial pyruvate carrier inhibitors for breast cancer treatment” (The Journal of Biological Chemistry, 2025).
Entries after “also recorded” stand apart in the source; their conditions may differ.

Columns and labels:
[1] = target: T1, mitochondrial pyruvate carrier (MPC) (Mus musculus, UniProt P63030+Q9D023); assay: Pyr-driven respiration in permeabilized 67NR cells; type: cell-based, murine
T1 construct: 4T1 cells were seeded (20,000 cells/well) onto Seahorse XFe96 well plates; host or cells: 4T1 murine breast cancer cells, rPFO-permeabilized
T1 sequence (P63030 1-109): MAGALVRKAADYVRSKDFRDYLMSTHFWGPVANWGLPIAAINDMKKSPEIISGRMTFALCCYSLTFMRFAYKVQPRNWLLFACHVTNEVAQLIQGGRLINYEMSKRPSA
T1 sequence (Q9D023 1-127): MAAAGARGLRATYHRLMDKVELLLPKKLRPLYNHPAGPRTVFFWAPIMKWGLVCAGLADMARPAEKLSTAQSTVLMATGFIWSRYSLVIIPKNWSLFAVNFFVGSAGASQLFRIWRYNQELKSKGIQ

[2] = test system: succinate-driven respiration in 4T1 cells; assay: Seahorse succinate-driven respiration in permeabilized 4T1 cells; type: cell-based, murine; settings: candidate compounds 1 μM
From the text: (§1) Although our initial experiments and previous literature illustrate the ability of the candidate compounds to inhibit Pyr-driven respiration, we sought to investigate the ability of candidate compounds to inhibit respiration fueled by other metabolic substrates, glutamate and succinate (Fig. 2). Glutamate, similar to Pyr oxidation, results in NADH equivalents that fuel complex I-mediated respiration, and succinate metabolism offers FADH2 for electrons in complex II-driven respiratory processes. […] To further validate the mode of action of the candidate compounds, a series of similar Seahorse experiments were employed (Fig. 2, A–C). In these experiments, 4T1 cells were first permeabilized and were then offered metabolic substrates Pyr (Pyr/Mal; Fig. 2A), glutamate (Glu/Mal, Fig. 2B), or succinate (Fig. 2C), and the resulting OCR was observed. As described previously, Mal and DCA were included in the substrate milieu of glutamate respiration experiments. […] To validate that inhibition of Pyr respiration is due to mitochondrial Pyr uptake and not other Pyr-processing enzymes (i.e., Pyr dehydrogenase), a parallel experiment using methyl pyruvate (MePyr) was employed (Fig. 2, E and F). MePyr is permeable to the mitochondrial membranes, where in the matrix, mitochondrial esterase hydrolysis activity provides Pyr.
Permeabilized cell assays were performed using rPFO as described previously. 4T1 cells were seeded (20,000 cells/well) onto Seahorse XFe96 well plates and incubated overnight in growth media at 37 °C and 5% CO2 for adherence. On the day of the assay, growth media were aspirated and replaced with MAS buffer (70 mM sucrose, 220 mM mannitol, 10 mM potassium phosphate monobasic, 5 mM magnesium chloride, 2 mM Hepes, and 1 mM EGTA) after 3X rinse of growth media to remove serum and endogenous metabolic substrates, and incubated at 37 °C in a non-CO2 incubator. Respective inhibitor and substrate milieu's were prepared in MAS buffer for port injections A–D at 8X, 9X, 10X, and 11X the target cell concentrations to account for intrinsic dilution factor of in situ injections of each port. […] Final substrate concentrations for specific tests were as follows: (5 mM Pyr , 0.5 mM Mal, 2 mM DCA; 10 mM glutamate, 0.5 mM Mal, 2 mM DCA; 10 mM succinate, 2 μM rotenone; 20 mM methyl Pyr, 5 mM Pyr, 0.5 mM Mal, and 2 mM DCA). ATP rate assays and mitochondrial stress tests were performed according to the manufacturer's (Agilent) instructions.

[3] = target: T1, mitochondrial pyruvate carrier (MPC); assay: Methyl pyruvate reversal of inhibited Pyr-driven respiration; type: cell-based, murine; settings: permeabilized 4T1 cells; 20 mM methyl Pyr
From the text: as §1
Permeabilized cell assays were performed using rPFO as described previously. […]

[4] = General tolerability dose escalation, intraperitoneal, CD-1 mice; type: in vivo
Procedure: After obtaining PK parameters of C5, we carried out a general tolerability dose escalation study via intraperitoneal injection to determine a maximum tolerated dose for future tumor efficacy studies (Fig. S3B). […] In CD-1 mice, dosing began at 5 mg/kg for 7 days. After 7 days, dosing was increased to 6 mg/kg; however, at this dose, there were acute respiratory effects and lethargy observed in the mice deeming it a toxic dose.
Dosing was increased to 6 mg/kg on day 8, but significant acute respiratory effects were observed indicating toxicity. Due to this acute effect, the study was terminated, and all mice were euthanized. The study was carried out following Institutional Animal Care and Use Committee protocol 2211-40546A.

With `CN(Cc1ccc(C(F)(F)F)cc1)c1ccc2cc(C(=O)O)c(=O)oc2c1.NC(CO)(CO)CO` [C5, 1,3-dihydroxy-2-(hydroxymethyl)propan-2-aminium 7-(methyl(4-(trifluoromethyl)benzyl)amino)-2-oxo-2H-chromene-3-carboxylate] the “effect on pyruvate driven respiration” value [1] was “inhibits”, the “effect on succinate-driven respiration” value [2] was “does not alter; also recorded: did not alter” and the “reversal of Pyr-driven respiration effects by methyl pyruvate” value [3] was “able to reverse”. For the same compound, the “toxic dose (acute respiratory effects and lethargy)” value [4] was 6 mg/kg and the MTD at 7 days ([4]; female, mouse, in vivo, ip, once daily 7 days, read-out: maximum tolerated dose) was 5 mg/kg.
